Series [1] relates to human liver microsomes. Nature of the series: In vitro human liver microsomal (HLM) stability assay. The class given is in vitro ADME. As to conditions: human liver microsomes 1 mg/mL, 1 μM compound, 37° C., vs non-isotopically enriched drug. The procedure: Liver microsomal stability assays were conducted at 1 mg per mL liver microsome protein with an NADPH-generating system in 2% NaHCO3 (2.2 mM NADPH, 25.6 mM glucose 6-phosphate, 6 units per mL glucose 6-phosphate dehydrogenase and 3.3 mM MgCl2). Test compounds were prepared as solutions in 20% acetonitrile-water. These solutions were added to the assay mixture (final assay concentration 1 μM) and incubated at 37° C. Final concentration of acetonitrile in the assay should be <1%. Aliquots (50 μL) were collected at the these timpoints: […], and 1 hours, and diluted with ice cold acetonitrile (200 μL) to stop the reactions. Samples were centrifuged at 12,000 RPM for 10 minutes to precipitate proteins. Supernatants were transferred to micro centrifuge tubes and stored for LC/MS/MS analysis of the degradation half-life of the test compounds.
Results of in vitro Human Liver Microsomal (HLM) Stability Assay
A general note: Liver microsomes are vesicles of endoplasmic reticulum, rich in cytochrome P450 enzymes.

For series [2] the following is noted: 400 mg oral dose under fasted conditions; cited from earlier work.

For the compound `Cc1cc(C)cc(OCC2CNC(=O)O2)c1` (centres unmarked) [Example 1, 5-[(3,5-dimethylphenoxy)methyl]oxazolidin-2-one], the “% increase of HLM degradation half-life, bin −25%-0%” value in series [1] is on record as “+ (−25%-0%)”. Further, in series [2], the terminal half-life was 9.0 ± 4.8 h and the “time of peak plasma concentrations” value is listed as “approximately 3 hours”.
As for `[2H]C([2H])([2H])c1cc(OCC2CNC(=O)O2)cc(C([2H])([2H])[2H])c1` (centres unmarked) [Example 2, 5-[(3,5-dimethyl-d6-phenoxy)methyl]oxazolidin-2-one], the “% increase of HLM degradation half-life, bin 0%-50%” value (“% increase … bin 0%-50%” below) in series [1] is listed as “+ (0%-50%)”.
For `[2H]C([2H])(Oc1cc(C)cc(C)c1)C1CNC(=O)O1` (centres unmarked) [Example 3, 5-[(3,5-dimethyl-phenoxy)methyl-d2]oxazolidin-2-one], in series [1], the “% increase … bin 0%-50%” value is “+ (0%-50%)”.
Turning to `[2H]C([2H])([2H])c1cc(OC([2H])([2H])C2CNC(=O)O2)cc(C([2H])([2H])[2H])c1` (centres unmarked) [Example 4, 5-[(3,5-Dimethyl-d6-phenoxy)methyl-d2]oxazolidin-2-one], the “% increase … bin 0%-50%” value in series [1] is “+ (0%-50%)”.
Consider `[2H]C1([2H])NC(=O)OC1([2H])C([2H])([2H])Oc1cc(C)cc(C)c1` (centres unmarked) [Example 5, 5-[(3,5-Dimethylphenoxy)methyl-d2]oxazolidin-4,4,5-d3-2-one], for which the “% increase … bin 0%-50%” value in series [1] was “+ (0%-50%)”.
On the same count and under the same terms, with `[2H]C([2H])([2H])c1cc(OC([2H])([2H])C2([2H])OC(=O)NC2([2H])[2H])cc(C([2H])([2H])[2H])c1` (centres unmarked) [Example 6, 5-[(3,5-Dimethyl-d6-phenoxy)methyl-d2]oxazolidin-4,4,5-d3-2-one] the entry was “+ (0%-50%)”.
